Earlier results on one substance are cited in patent EP0985412B1, “Cyclosporin compositions” (Panacea Biotec Limited, priority 1998, dated 2000).

This data set has as its system normal epithelial tissue and Peyer's patch tissue of guinea pigs.

Take Choleic acid: the “absorption raised by a factor” value is recorded as 5-6.
